Some test systems named below: DMS 114 small cell lung; HS 578T breast; HCT-116 colon; MDA-MB-231 breast; DU-145 prostate; NCI-H23 lung; SF-295 CNS; OVCAR-5 ovarian; MDA-N; T-47D breast.
Common to all, as to assay: inhibition of tumour cell growth, NCI panel, 48 h

Where “and” joins values, the source holds several entries; their conditions need not be identical. Identical values can stand only once.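 Values below derive from 48-hour exposures of cells grown in 96-well plates, with endpoints linearly interpolated between the two concentrations bracketing the appropriate inhibition level. Abbreviation: GI50, concentration required for 50% inhibition of growth. The concentration for full growth arrest is given as TGI.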

As to `COc1ccc(/C=C\c2cc(OC)c(OC)c(OC)c2)cc1OC(=O)CC(N)C(=O)O` (centres undefined), the TGI was 0.00318 µM in the assay with DMS 114 small cell lung; 0.00314 µM in the assay with HS 578T breast; 0.00404 µM with MDA-MB-231 breast; 0.0187 µM in the assay with DU-145 prostate; 0.0465 µM in the assay with NCI-H23 lung; 0.00305 µM and 0.00613 µM in the assay on SF-295 CNS. The TGI was greater than 100 µM in the assay with OVCAR-5 ovarian and 0.000474 µM in the assay on MDA-N. Moreover, the GI50 with HS 578T breast is 0.00262 µM; in the assay with HCT-116 colon it was 40.7 pM; with MDA-MB-231 breast it was 0.00402 µM; with NCI-H23 lung, 0.000635 µM; with SF-295 CNS, 0.000726 µM; in the assay on OVCAR-5 ovarian, 55.8 µM.

On to `COc1cc(C2c3cc4c(cc3[C@@H](Nc3ccc([N+](=O)[O-])cc3)C3COC(=O)[C@H]23)OCO4)cc(OC)c1O` (some centres undefined), for which the figures for the GI50 in the assay with DMS 114 small cell lung, in the assay with NCI-H23 lung and in the assay with OVCAR-5 ovarian were 0.614 µM, 0.341 µM and 0.722 µM, respectively. The TGI stood at 6.26 µM with DMS 114 small cell lung; 14.2 µM in the assay with HCT-116 colon; 37.9 µM in the assay with DU-145 prostate; 4.12 µM in the assay on NCI-H23 lung; 4.85 µM with SF-295 CNS; 13.6 µM in the assay with OVCAR-5 ovarian. In the assay with MDA-N, this molecule yielded a TGI greater than 100 µM.

In the case of `O=C1C(Cl)=C(Cl)C(=O)N1c1ccc(F)cc1`, the TGI was 51.2 µM in the assay with T-47D breast; 39.4 µM in the assay with DMS 114 small cell lung; 55.4 µM in the assay on HS 578T breast; greater than 54.5 µM in the assay on HCT-116 colon; 33 µM in the assay with MDA-MB-231 breast; greater than 100 µM in the assay with DU-145 prostate. The TGI in the assay with NCI-H23 lung is 36.9 µM; in the assay with SF-295 CNS, greater than 100 µM; in the assay with OVCAR-5 ovarian it was 41 µM; in the assay on MDA-N it was 48.7 µM.

For the origin of these results see PubChem BioAssay (NCI).
